Data from DBAASP.
Converted amounts (≈) assume the structure as drawn.

Experiments:
Experiment in all cases: ≥ marks a high value that may be exact or a test limit, other limits are often not marked, values filed in µg/mL are converted to µM
[1] = tested on: Shigella dysenteriae
[2] = tested on: Staphylococcus aureus ATCC 2592
[3] = tested on: Escherichia coli ATCC 25922
[4] = tested on: Candida albicans ATCC 2002
[5] = tested on: Pseudomonas aeruginosa CMCCB 10104
[6] = tested on: Staphylococcus aureus ATCC 25923
[7] = tested on: Escherichia coli K-12
[8] = tested on: Staphylococcus aureus ATCC 6538
[9] = tested on: Pseudomonas aeruginosa ATCC 27853
[10] = tested on: Shigella dysenteriae ATCC 9752
[11] = tested on: Staphylococcus epidermidis ATCC 12228
[12] = tested on: Bacillus subtilis ATCC 6633
[13] = tested on: Klebsiella pneumoniae ATCC 10031
[14] = tested on: Salmonella enterica subsp. enterica serovar Typhimurium ATCC 14028
[15] = tested on: Micrococcus luteus ATCC 10240
[16] = tested on: Staphylococcus aureus ATCC 6538P
[17] = tested on: Staphylococcus aureus USA 300
[18] = tested on: Pseudomonas aeruginosa PAO1
[19] = tested on: Bacillus subtilis 168
[20] = tested on: Bacillus cereus
[21] = tested on: Pseudomonas aeruginosa

## CC[C@H](C)[C@H](NC(=O)CNC(=O)[C@H](CO)NC(=O)[C@H](CC(C)C)NC(=O)[C@H](CC(C)C)NC(=O)CN)C(=O)N[C@@H](CC(C)C)C(=O)NCC(=O)N[C@@H](C)C(=O)NCC(=O)N[C@@H](CCCCN)C(=O)N[C@@H](Cc1cnc[nH]1)C(=O)N[C@H](C(=O)N[C@H](C(=O)N[C@H]1CSSC[C@@H](C(=O)N[C@@H](C)C(=O)N[C@@H](CCCCN)C(=O)N[C@@H](C)C(=O)O)NC(=O)CNC(=O)[C@H]([C@@H](C)O)NC(=O)[C@H](CC(C)C)NC(=O)CNC1=O)C(C)C)[C@@H](C)CC [GLLSGILGAGKHIVCGLTGCAKA]
[1]
  MIC: 17.5 µM (≈ 37.5 µg/mL)
[2]
  MIC: 4.38 µM (≈ 9.37 µg/mL)
[3]
  MIC: > 46.7 µM
[4]
  MIC: 8.76 µM (≈ 18.7 µg/mL)

## CC[C@H](C)[C@H](NC(=O)[C@H](Cc1ccccc1)NC(=O)[C@H](CCCCN)NC(=O)[C@H](CC(=O)O)NC(=O)[C@@H](NC(=O)[C@H](CC(C)C)NC(=O)[C@H](CC(=O)O)NC(=O)[C@H](CCC(=O)O)NC(=O)[C@H](C)NC(=O)[C@H](CC(=O)O)NC(=O)[C@H](CCC(=O)O)NC(=O)CNC(=O)[C@H](CC(N)=O)NC(=O)[C@H](CCC(=O)O)NC(=O)[C@@H](NC(=O)[C@H](CC(N)=O)NC(=O)[C@H](C)NC(=O)[C@@H](N)CC(=O)O)C(C)C)[C@@H](C)O)C(=O)NCC(=O)N[C@@H](CC(C)C)C(=O)N[C@@H](CCSC)C(=O)NCC(=O)O [DANVENGEDAEDLTDKFIGLMG]
[5]
  MIC: ≥ 85 µM
[6]
  MIC: > 85 µM
[3]
  MIC: > 85 µM
[4]
  MIC: ≥ 85 µM

## CC[C@H](C)[C@H](NC(=O)[C@H](CCCN=C(N)N)NC(=O)[C@H](CCC(N)=O)NC(=O)[C@@H](NC(=O)[C@@H](NC(=O)[C@H](CCCN=C(N)N)NC(=O)[C@@H](N)CCCN=C(N)N)[C@@H](C)CC)C(C)C)C(=O)N[C@@H](CCCN=C(N)N)C(=O)N[C@@H](CC(=O)O)C(=O)N[C@@H](Cc1ccccc1)C(=O)N[C@@H](CC(C)C)C(=O)N[C@@H](CCCN=C(N)N)C(N)=O [RRIVQRIRDFLR]
[7]
  MIC: 30 µM (≈ 48.8 µg/mL)

## CC(C)C[C@H](NC(=O)[C@H](CCC(N)=O)NC(=O)[C@H](CCCCN)NC(=O)[C@H](Cc1ccc(O)cc1)NC(=O)[C@@H]1CCCN1C(=O)[C@H](CCC(N)=O)NC(=O)[C@H](C)NC(=O)[C@H](CO)NC(=O)CN)C(=O)N[C@@H](Cc1cnc[nH]1)C(=O)N[C@@H](CCCCN)C(=O)N[C@H](C(=O)N[C@H](C(=O)N[C@@H](CC(N)=O)C(=O)N[C@@H](Cc1c[nH]c2ccccc12)C(=O)N[C@@H](CC(=O)O)C(=O)N1CCC[C@H]1C(=O)N[C@@H](Cc1ccc(O)cc1)C(=O)NCC(=O)O)C(C)C)C(C)C [GSAQPYKQLHKVVNWDPYG]
[1]
  MIC: 27.4 µM (≈ 60 µg/mL)
[2]
  MIC: 6.86 µM (≈ 15 µg/mL)
[3]
  MIC: > 45.7 µM
[4]
  MIC: 13.7 µM (≈ 30 µg/mL)

## CC[C@H](C)[C@H](NC(=O)[C@H](CCSC)NC(=O)[C@H](CCCCN)NC(=O)[C@H](CCC(=O)O)NC(=O)[C@H](C)NC(=O)[C@H](CCCCN)NC(=O)[C@H](CCCCN)NC(=O)[C@H](Cc1ccccc1)NC(=O)[C@@H](NC(=O)[C@H](CCCCN)NC(=O)[C@H](Cc1c[nH]c2ccccc12)NC(=O)[C@@H](N)CCCCN)C(C)C)C(=O)N[C@@H](CCCN=C(N)N)C(=O)N[C@@H](CC(N)=O)C(=O)N[C@H](C(=O)N[C@@H](CCCN=C(N)N)C(=O)N[C@@H](CC(N)=O)C(=O)N[C@@H](CCCCN)C(=O)N[C@H](C(=O)N[C@H](C(=O)N[C@@H](CCCCN)C(N)=O)C(C)C)[C@@H](C)CC)[C@@H](C)CC [KWKVFKKAEKMIRNIRNKIVK]
[8]
  MIC: > 25 µM
[9]
  MIC: > 6 µM
[7]
  MIC: 3 µM (≈ 7.97 µg/mL)

## CC[C@H](C)[C@H](NC(=O)[C@H](CC(C)C)NC(=O)[C@@H](NC(=O)[C@H](Cc1ccccc1)NC(=O)[C@H](CC(C)C)NC(=O)CN)[C@@H](C)O)C(=O)N[C@@H](CCCCN)C(=O)NCC(=O)N[C@@H](C)C(=O)N[C@@H](Cc1ccc(O)cc1)C(=O)N[C@@H](CCCCN)C(=O)N[C@@H](CC(N)=O)C(=O)N[C@@H](CC(=O)O)C(=O)N[C@@H](C)C(=O)N1CCC[C@H]1C(=O)N[C@H](C(=O)N[C@H](C(=O)N[C@@H](C)C(=O)N[C@@H](CS)C(=O)N[C@@H](CC(N)=O)C(=O)O)C(C)C)[C@@H](C)O [GLFTLIKGAYKNDAPTVACN]
[5]
  MIC: 23.2 µM (≈ 48.6 µg/mL)
[6]
  MIC: 5.82 µM (≈ 12.2 µg/mL)
[3]
  MIC: 11.6 µM (≈ 24.3 µg/mL)
[4]
  MIC: 11.6 µM (≈ 24.3 µg/mL)

## CC(C)C[C@H](NC(=O)[C@H](CCCCN)NC(=O)[C@H](CCCCN)NC(=O)[C@H](CC(C)C)NC(=O)[C@H](Cc1c[nH]c2ccccc12)NC(=O)[C@H](CCCCN)NC(=O)[C@H](CC(C)C)NC(=O)[C@@H](N)CC(C)C)C(N)=O [LLKWLKKL]
[10]
  MIC: ≥ 192 µM
[11]
  MIC: 96 µM (≈ 99.9 µg/mL)
[12]
  MIC: ≥ 48 µM
[13]
  MIC: ≥ 192 µM
[14]
  MIC: > 192 µM
[9]
  MIC: 48 µM (≈ 50 µg/mL)
[3]
  MIC: 96 µM (≈ 99.9 µg/mL)
[15]
  MIC: ≥ 96 µM
[16]
  MIC: 24 µM (≈ 25 µg/mL)

## CC[C@H](C)[C@H](NC(=O)[C@@H]1CCCN1C(=O)[C@H](Cc1cnc[nH]1)NC(=O)[C@H](CCCCN)NC(=O)[C@@H]1CCCN1C(=O)[C@@H](N)CCCNC(=N)N)C(=O)N[C@@H](CCCCN)C(=O)N[C@@H](Cc1cnc[nH]1)C(=O)N[C@@H](CCC(N)=O)C(=O)NCC(=O)N[C@@H](CC(C)C)C(=O)N1CCC[C@H]1C(=O)N[C@@H](CCC(N)=O)C(=O)N[C@@H](CCC(=O)O)C(=O)N[C@H](C(=O)N[C@@H](CC(C)C)C(=O)N[C@@H](CC(N)=O)C(=O)N[C@@H](CCC(=O)O)C(=O)N[C@@H](CC(N)=O)C(=O)N[C@@H](CC(C)C)C(=O)N[C@@H](CC(C)C)C(=O)N[C@@H](CCCNC(=N)N)C(=O)N[C@@H](Cc1ccccc1)C(=O)O)C(C)C [RPKHPIKHQGLPQEVLNENLLRF]
[17]
  MIC: ≥ 100 µM
[7]
  MIC: ≥ 100 µM

## CC[C@H](C)[C@H](N)C(=O)N[C@@H](CCCCN)C(=O)N[C@@H](Cc1c[nH]c2ccccc12)C(=O)N[C@@H](CCCCN)C(=O)N[C@@H](CCCCN)C(=O)N[C@@H](CC(C)C)C(=O)N[C@@H](CC(C)C)C(=O)N[C@@H](CCCN=C(N)N)C(=O)N[C@@H](C)C(=O)N[C@@H](C)C(=O)N[C@@H](CCCCN)C(=O)N[C@@H](CCCN=C(N)N)C(=O)N[C@H](C(=O)N[C@@H](CC(C)C)C(N)=O)[C@@H](C)CC [IKWKKLLRAAKRIL]
[18]
  MIC: 6.25 µM (≈ 10.9 µg/mL)
[19]
  MIC: 12.5 µM (≈ 21.7 µg/mL)
[17]
  MIC: 6.2 µM (≈ 10.8 µg/mL)
[7]
  MIC: 3.1 µM (≈ 5.38 µg/mL)

## CC[C@H](C)[C@H](NC(=O)CN)C(=O)N[C@@H](CC(C)C)C(=O)N[C@@H](CC(=O)O)C(=O)N[C@@H](C)C(=O)N[C@H](C(=O)N[C@@H](CCCCN)C(=O)N[C@@H](C)C(=O)N[C@@H](Cc1ccccc1)C(=O)N[C@@H](C)C(=O)N[C@@H](CC(N)=O)C(=O)N[C@@H](C)C(=O)N[C@@H](CC(C)C)C(=O)NCC(N)=O)[C@@H](C)CC [GILDAIKAFANALG]
[1]
  MIC: 2 µM (≈ 2.75 µg/mL)
[2]
  MIC: 4 µM (≈ 5.5 µg/mL)
[12]
  MIC: 4 µM (≈ 5.5 µg/mL)
[20]
  MIC: 8.01 µM (≈ 11 µg/mL)
[3]
  MIC: 32 µM (≈ 44 µg/mL)
[4]
  MIC: ≥ 48 µM
[21]
  MIC: 4 µM (≈ 5.5 µg/mL)

## C[C@H](NC(=O)[C@H](Cc1c[nH]c2ccccc12)NC(=O)[C@H](CCCCN)NC(=O)[C@H](C)NC(=O)[C@@H](N)Cc1ccccc1)C(=O)N[C@@H](Cc1ccccc1)C(=O)N[C@@H](CCCCN)C(=O)N[C@@H](Cc1c[nH]c2ccccc12)C(=O)N[C@@H](C)C(=O)N[C@@H](CCCCN)C(=O)N[C@@H](CCCCN)C(N)=O [FAKWAFKWAKK]
[10]
  MIC: ≥ 35.4 µM
[11]
  MIC: 70.9 µM (≈ 99.9 µg/mL)
[12]
  MIC: 17.7 µM (≈ 25 µg/mL)
[13]
  MIC: ≥ 142 µM
[14]
  MIC: 142 µM (≈ 200 µg/mL)
[9]
  MIC: 142 µM (≈ 200 µg/mL)
[3]
  MIC: 70.9 µM (≈ 99.9 µg/mL)
[15]
  MIC: 17.7 µM (≈ 25 µg/mL)
[16]
  MIC: ≥ 70.9 µM
